Test results published in PMC9144936, “New Cu^+2 Complexes with N-Sulfonamide Ligands: Potential Antitumor, Antibacterial, and Antioxidant Agents” (Molecules, 2022).

System: Swiss mice
Details: mouse, in vivo, ip, 150 mg/kg/day
Experimental: This study was carried out for a period of 2 weeks on 10 adult Swiss mice, with 5 males and 5 females.
A subacute toxicity study was carried out for a period of 2 weeks for the C2 complex. In total, 10 adult Swiss mice, 32.26 ± 1.3 g body weight, with 5 males and 5 females, were used. The mice were caged in standard polypropylene cages, in standard laboratory conditions (12 h light/dark cycle, temperature 25 ± 1 °C, and relative humidity 55 ± 5%). Standard lab chow, provided by the “Cantacuzino” National Insitute for Research and Development Bucharest, and water were freely available. All procedures performed on mice complied with the European Directive 2010/63/EU and the national low 43/2014 for Protection of Animals Used for Scientific Purposes. This study was approved by the Bioethical Board of the Faculty of Veterinary Medicine Cluj-Napoca (accord no.290/22.11.2021) and the Veterinary Sanitary Direction and Food Safety (accord no.284/21.12.2021). All mice received i.p. 150 mg complex C2/kg b.w./day, for 2 weeks. […]
The general clinical status and the body weight were recorded daily. […]
The liver and kidneys were also removed. […] To determine the hematological toxicity, erythrogram, leukogram, and thrombogram were assessed using a Diatron Abascus Junior Vet 3.

How did the clinical changes turn out when “[Cu(N-(5-Ethyl--[1,3,4]-Thiadiazole-2-yl) Naphtalenesulfonamidate)2(py)2(H2O)] [C2]” was run?
The clinical changes was “did not undergo clinical changes”.

What about the “histological analyses of kidney and liver” value of the same substance?
The value was “normal structure”.
